Assay results taken from ChEMBL document CHEMBL1821609, “Combined SVM-based and docking-based virtual screening for retrieving novel inhibitors of c-Met” (Eur J Med Chem, 2011).

molecular target: Hepatocyte growth factor receptor (Homo sapiens, UniProt P08581)
Sequence (P08581 whole entry): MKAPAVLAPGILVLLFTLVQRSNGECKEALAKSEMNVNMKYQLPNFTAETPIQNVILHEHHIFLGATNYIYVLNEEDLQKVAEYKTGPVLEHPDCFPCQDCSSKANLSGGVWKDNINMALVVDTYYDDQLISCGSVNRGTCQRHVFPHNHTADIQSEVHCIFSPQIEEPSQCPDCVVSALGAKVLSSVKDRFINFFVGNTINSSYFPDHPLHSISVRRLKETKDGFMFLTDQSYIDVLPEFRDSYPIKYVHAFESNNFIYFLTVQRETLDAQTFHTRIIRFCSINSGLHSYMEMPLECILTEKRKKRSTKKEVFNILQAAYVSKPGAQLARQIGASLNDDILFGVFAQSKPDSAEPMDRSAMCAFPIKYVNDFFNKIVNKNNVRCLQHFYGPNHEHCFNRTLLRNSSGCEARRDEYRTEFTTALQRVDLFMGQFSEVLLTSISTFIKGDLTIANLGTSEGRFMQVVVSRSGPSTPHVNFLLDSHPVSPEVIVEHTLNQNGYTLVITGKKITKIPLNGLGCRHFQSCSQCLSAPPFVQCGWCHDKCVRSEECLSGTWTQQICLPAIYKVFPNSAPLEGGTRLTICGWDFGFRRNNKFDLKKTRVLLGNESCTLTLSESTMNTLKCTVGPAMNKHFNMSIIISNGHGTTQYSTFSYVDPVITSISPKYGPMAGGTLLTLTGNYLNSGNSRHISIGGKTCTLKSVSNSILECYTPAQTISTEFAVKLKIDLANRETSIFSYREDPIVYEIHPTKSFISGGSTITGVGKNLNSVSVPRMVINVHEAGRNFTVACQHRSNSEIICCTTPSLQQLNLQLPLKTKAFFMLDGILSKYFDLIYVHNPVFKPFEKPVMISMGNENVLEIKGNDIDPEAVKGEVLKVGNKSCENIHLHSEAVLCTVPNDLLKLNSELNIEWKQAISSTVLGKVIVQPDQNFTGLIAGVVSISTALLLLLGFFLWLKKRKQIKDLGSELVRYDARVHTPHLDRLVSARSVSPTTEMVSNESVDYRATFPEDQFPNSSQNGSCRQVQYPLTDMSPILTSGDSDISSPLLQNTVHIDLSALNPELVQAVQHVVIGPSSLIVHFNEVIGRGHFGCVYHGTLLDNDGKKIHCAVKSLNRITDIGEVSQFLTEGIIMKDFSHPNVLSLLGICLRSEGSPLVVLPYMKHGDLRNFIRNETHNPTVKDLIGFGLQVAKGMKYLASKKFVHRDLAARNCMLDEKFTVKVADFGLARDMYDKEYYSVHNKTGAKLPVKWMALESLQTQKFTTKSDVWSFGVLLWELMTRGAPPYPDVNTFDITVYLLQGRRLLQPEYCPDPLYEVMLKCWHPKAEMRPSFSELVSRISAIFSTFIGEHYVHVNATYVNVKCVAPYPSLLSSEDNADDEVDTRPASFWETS
Description: Inhibition of human c-MET

SMILES | IC50
COc1cc2nccc(Oc3ccc(-c4cnc(C(N)c5ccccc5)n(C)c4=O)cc3F)c2cc1OC (stereo unspecified) | 72 nM
O=C(Nc1ccc(Oc2ccnc3ccsc23)cc1)NC1CC1c1ccccc1 (stereo unspecified) | 10000 nM
COc1cc2nccc(Oc3ccc(NC(=O)NCCc4c(Cl)cccc4Cl)nc3)c2cc1OC | 5200 nM
COc1cc2c(Oc3ccc(-c4cnc(Cc5ccccc5)n(C)c4=O)cc3F)ccnc2cc1OCCCN1CCOCC1 | 17 nM
COc1cc2c(Oc3ccc(-c4cnc(Cc5ccc(F)cc5)n(C)c4=O)cc3F)ccnc2cc1OCCCN1CCOCC1 | 17 nM
COc1cc2nccc(Oc3ccc(-c4cnc(Nc5cccc(F)c5)n(C)c4=O)cc3F)c2cc1OC | 38 nM
COc1cc2nccc(Oc3ccc(NC(=O)NCC(=O)N(C)C)nc3)c2cc1OC | 9640 nM
O=C(Cc1ccccc1)NC(=O)Nc1ccc(Oc2ccnc3ccsc23)cc1F | 300 nM
CC(C)(C)OC(=O)c1cnc2ccn(S(=O)(=O)c3ccccc3[N+](=O)[O-])c2c1 | 20 nM
Cc1cccc2c1NC(=O)/C2=N\NC(=O)Cc1ccc(O)c(Cl)c1 | 20 nM
COc1ccc2c(Oc3ccc(NC(=O)c4c(C)n(CC(C)(C)O)n(-c5ccccc5)c4=O)cc3F)ccnc2c1 | 2.7 nM
CN1CCN(c2cnc3cccc(OCc4cccc([N+](=O)[O-])c4)c3c2)CC1 | 57 nM
O=C(Cc1ccccc1)NC(=S)Nc1ccc(Oc2ccnc3cc(C(=O)C4CCCO4)sc23)c(F)c1 (stereo unspecified) | 130 nM
Cc1[nH]c(/C=C2\C(=O)Nc3ccc(S(=O)(=O)N4CCc5ccccc54)cc32)c(C)c1C(=O)N1CCN(C)CC1 | 40 nM
Cc1cc(CCN2CCCC2)c(C)c2c1N(CCN1CCCCC1)C(=O)/C2=N\NC(=O)C(C)c1ccc(O)cc1 (stereo unspecified) | 200 nM
CC(C(=O)NN=C1C(=O)Nc2ccc(C(=O)N3CCCC3CN3CCCC3)c(Cl)c21)c1ccc(F)cc1 (stereo unspecified) | 430 nM

Continued by falling IC50, values first:

IC50 | SMILES
6600 nM | O=C(Nc1ccc(Oc2ccnc3ccsc23)c(F)c1)NC1CC1c1ccccc1 (stereo unspecified)
4400 nM | Cn1ccnc1-c1cc2nccc(Oc3ccc(NC(=O)NC(=O)c4c(F)cccc4F)nc3)c2s1
4150 nM | Cn1cc(CC(=O)N/N=C2\C(=O)Nc3ccc(C(=O)N4CCCC4CN4CCCC4)c(Cl)c32)ccc1=O (stereo unspecified)
430 nM | COc1cc2ncnc(Oc3ccc(NC(=O)NC(=O)c4c(F)cccc4F)nc3)c2cc1OC
181 nM | O=C(Cc1ccccc1)NC(=S)Nc1ccc(Oc2cccc3cc(-c4ncccn4)sc23)c(F)c1
170 nM | Cc1[nH]c(/C=C2\C(=O)Nc3ccc(S(=O)(=O)N(C)c4cccc(Cl)c4)cc32)c(C)c1CCCN1CCOCC1
108 nM | CCn1ccnc1-c1cc2cccc(Oc3ccc(NC(=S)NC(=O)Cc4ccccc4)cc3F)c2s1
100 nM | CN(C)CCNC(=O)c1cc(Br)c2c(c1)NC(=O)/C2=N\NC(=O)Cc1ccc2c(c1)CCO2
65 nM | O=C(Cc1ccc2c(c1)CCO2)N/N=C1\C(=O)Nc2cc(C(=O)NCCCO)cc(Br)c21
29 nM | Cn1cnc(-c2cc3cccc(Oc4ccc(NC(=S)NC(=O)Cc5ccccc5)cc4F)c3s2)c1
28 nM | CN(CCN1CCN(N)CC1)Cc1ccc(-c2cc3nccc(Oc4ccc(NC(=O)N5CCN(c6ccccc6)C5=O)cc4F)c3s2)cc1
21 nM | CCN1CCN(CCCOc2cc3nccc(Oc4ccc(-c5cnc(Cc6ccccc6)n(C)c5=O)cc4F)c3cc2OC)CC1
9.2 nM | COc1cc2c(Oc3ccc(-c4cnc(Cc5ccccc5)n(C)c4=O)cc3F)ccnc2cc1OCCCN1CCN(C)CC1
4.9 nM | COc1cc2c(Oc3ccc(-c4cnc(Nc5ccc(F)cc5)n(C)c4=O)cc3F)ccnc2cc1OCCCN1CCOCC1
0.7 nM | O=C(Cc1ccc2c(c1)CCO2)NN=C1C(=O)Nc2cc(C(=O)NCN3CCOCC3)cc(Br)c21
